Assay results from PMC8409585 (The Journal of Clinical Investigation, 2021).

Biological target: T1, mitochondrial electron transport chain complex I (ETCC1), NADH ubiquinone oxidoreductase (Bos taurus, UniProt P03887+P17694+P42026)
T1 construct: gene MT-ND1

Q: `C=C(C)[C@@H]1C[C@@]2(C)C(=CC1=O)CC[C@@H](OC(=O)/C(C)=C\C)[C@@H]2C` [PT, petasin] was tested. Which IC50 did it give?
A: 3.55 µM
